# Species on record: Rattus norvegicus
# Assay: DrugMatrix - Regimen: Daily Repeat
# Type: toxicity, organism-based, Sprague-Dawley
# Set-up: regimen Daily Repeat, gender Male, age 6-8 weeks
# Conditions: in vivo, po, route oral GAVAGE, […]; for ABSOLUTE BASOPHIL / BASOPHIL / NUCLEATED RED BLOOD CELLS / ABSOLUTE EOSINOPHIL / EOSINOPHIL / ERYTHROCYTE COUNT / HEMATOCRIT / HEMOGLOBIN / LEUKOCYTE COUNT / LYMPHOCYTE / MEAN CORPUSCULAR HEMOGLOBIN / MEAN CORPUSCULAR HEMOGLOBIN CONCENTRATION / MEAN CORPUSCULAR VOLUME / MONOCYTE / NEUTROPHIL / PLATELET COUNT / ABSOLUTE LYMPHOCYTE / ABSOLUTE MONOCYTE / ABSOLUTE SEGMENTED NEUTROPHIL: tissue Blood
# [1] = 0 mg/kg, 72 h, dose level Control, time 3 day
# [2] = 0 mg/kg, 120 h, dose level Control, time 5 day
# [3] = 0 mg/kg, dose level Control, time 28 day
# [4] = 0 mg/kg, tissue Plasma, dose level Control, time 28 day
# [5] = 23 mg/kg, 72 h, dose level Low, time 3 day
# [6] = 23 mg/kg, 72 h, tissue Plasma, dose level Low, time 3 day
# [7] = 23 mg/kg, 120 h, dose level High, time 5 day
# [8] = 23 mg/kg, 120 h, dose level Low, time 5 day
# [9] = 23 mg/kg, 120 h, tissue Plasma, dose level High, time 5 day
# [10] = 23 mg/kg, 120 h, tissue Plasma, dose level Low, time 5 day
compound,measurement,setting,value
CC1=C(CC(=O)O)c2cc(F)ccc2/C1=C\c1ccc([S+](C)[O-])cc1 (stereo not given),ABSOLUTE BASOPHIL,[1],0 CELLS/uL
same,BASOPHIL,[1],0%
same,NUCLEATED RED BLOOD CELLS,[1],0 /100WBC
same,ABSOLUTE BASOPHIL,[2],0 CELLS/uL
same,ABSOLUTE EOSINOPHIL,[2],0 CELLS/uL
same,BASOPHIL,[3],0.42%
same,EOSINOPHIL,[3],0.58%
same,ERYTHROCYTE COUNT,[3],8.06 x10E6/uL
same,HEMATOCRIT,[3],48.44%
same,HEMOGLOBIN,[3],16.34 G/DL
same,LEUKOCYTE COUNT,[3],13.04 x10E3/uL
same,LYMPHOCYTE,[3],85.12%
same,MEAN CORPUSCULAR HEMOGLOBIN,[3],20.26 pg
same,MEAN CORPUSCULAR HEMOGLOBIN CONCENTRATION,[3],33.74 G/DL
same,MEAN CORPUSCULAR VOLUME,[3],60.1 fL
same,MONOCYTE,[3],1.44%
same,NEUTROPHIL,[3],11.28%
same,PLATELET COUNT,[3],1226 x10E3/uL
same,ALANINE AMINOTRANSFERASE,[4],28.6 u/L
same,ALBUMIN,[4],3.94 G/DL
same,ALKALINE PHOSPHATASE,[4],254.6 u/L
same,ASPARTATE AMINOTRANSFERASE,[4],67.8 u/L
same,BLOOD UREA NITROGEN,[4],10.4 mg/dL
same,CHLORIDE,[4],104.6 MEQ/L
same,CHOLESTEROL,[4],57.6 mg/dL
same,CREATINE PHOSPHOKINASE,[4],224.8 u/L
same,CREATININE,[4],0.4 mg/dL
same,GLUCOSE,[4],140.6 mg/dL
same,PHOSPHORUS,[4],10.66 mg/dL
same,POTASSIUM,[4],6.58 MEQ/L
same,SODIUM,[4],148.6 MEQ/L
same,TOTAL BILIRUBIN,[4],0.24 mg/dL
same,TOTAL PROTEIN,[4],6.64 G/DL
same,ABSOLUTE BASOPHIL,[5],0 CELLS/uL
same,ABSOLUTE EOSINOPHIL,[5],0 CELLS/uL
same,ABSOLUTE LYMPHOCYTE,[5],6660 CELLS/uL
same,ABSOLUTE MONOCYTE,[5],202 CELLS/uL
same,ABSOLUTE SEGMENTED NEUTROPHIL,[5],1671.33 CELLS/uL
same,BASOPHIL,[5],0%
same,EOSINOPHIL,[5],0%
same,ERYTHROCYTE COUNT,[5],4.91 x10E6/uL
same,HEMATOCRIT,[5],31.27%
same,HEMOGLOBIN,[5],12.6 G/DL
same,LEUKOCYTE COUNT,[5],8.53 x10E3/uL
same,LYMPHOCYTE,[5],79.33%
same,MEAN CORPUSCULAR HEMOGLOBIN,[5],25.63 pg
same,MEAN CORPUSCULAR HEMOGLOBIN CONCENTRATION,[5],40.27 G/DL
same,MEAN CORPUSCULAR VOLUME,[5],63.67 fL
same,MONOCYTE,[5],2.33%
same,NEUTROPHIL,[5],18.33%
same,NUCLEATED RED BLOOD CELLS,[5],0 /100WBC
same,PLATELET COUNT,[5],1080 x10E3/uL
same,ALANINE AMINOTRANSFERASE,[6],65.67 u/L
same,ALBUMIN,[6],3.97 G/DL
same,ALKALINE PHOSPHATASE,[6],429 u/L
same,ASPARTATE AMINOTRANSFERASE,[6],75.67 u/L
same,BLOOD UREA NITROGEN,[6],14.33 mg/dL
same,CARBON DIOXIDE,[6],38.33 mmol/L
same,CHLORIDE,[6],99.33 MEQ/L
same,CHOLESTEROL,[6],87 mg/dL
same,CREATINE PHOSPHOKINASE,[6],223.33 u/L
same,CREATININE,[6],0.18 mg/dL
same,GLUCOSE,[6],181 mg/dL
same,LACTATE DEHYDROGENASE,[6],60.67 u/L
same,LIPASE,[6],16 u/L
same,PHOSPHORUS,[6],9.23 mg/dL
same,POTASSIUM,[6],4.45 MEQ/L
same,SODIUM,[6],143.57 MEQ/L
same,TOTAL BILIRUBIN,[6],0.13 mg/dL
same,TOTAL PROTEIN,[6],5.8 G/DL
same,URIC ACID,[6],0.47 mg/dL
same,BASOPHIL,[7],0.28%
same,EOSINOPHIL,[7],0.82%
same,ERYTHROCYTE COUNT,[7],7.33 x10E6/uL
same,HEMATOCRIT,[7],47.1%
same,HEMOGLOBIN,[7],14.9 G/DL
same,LEUKOCYTE COUNT,[7],7.35 x10E3/uL
same,LYMPHOCYTE,[7],79.44%
same,MEAN CORPUSCULAR HEMOGLOBIN,[7],20.4 pg
same,MEAN CORPUSCULAR HEMOGLOBIN CONCENTRATION,[7],31.66 G/DL
same,MEAN CORPUSCULAR VOLUME,[7],64.4 fL
same,MONOCYTE,[7],1.92%
same,NEUTROPHIL,[7],16.36%
same,PLATELET COUNT,[7],1405.2 x10E3/uL
same,ABSOLUTE BASOPHIL,[8],0 CELLS/uL
same,ABSOLUTE EOSINOPHIL,[8],0 CELLS/uL
same,ABSOLUTE LYMPHOCYTE,[8],5718.33 CELLS/uL
same,ABSOLUTE MONOCYTE,[8],84 CELLS/uL
same,ABSOLUTE SEGMENTED NEUTROPHIL,[8],664.33 CELLS/uL
same,BASOPHIL,[8],0%
same,EOSINOPHIL,[8],0%
same,ERYTHROCYTE COUNT,[8],5.51 x10E6/uL
same,HEMATOCRIT,[8],34.03%
same,HEMOGLOBIN,[8],13.47 G/DL
same,LEUKOCYTE COUNT,[8],6.47 x10E3/uL
same,LYMPHOCYTE,[8],88.33%
same,MEAN CORPUSCULAR HEMOGLOBIN,[8],24.47 pg
same,MEAN CORPUSCULAR HEMOGLOBIN CONCENTRATION,[8],39.6 G/DL
same,MEAN CORPUSCULAR VOLUME,[8],61.87 fL
same,MONOCYTE,[8],1.33%
same,NEUTROPHIL,[8],10.33%
same,NUCLEATED RED BLOOD CELLS,[8],0.33 /100WBC
same,PLATELET COUNT,[8],949.67 x10E3/uL
same,ALANINE AMINOTRANSFERASE,[9],32.2 u/L
same,ALBUMIN,[9],3.8 G/DL
same,ALKALINE PHOSPHATASE,[9],308.4 u/L
same,ASPARTATE AMINOTRANSFERASE,[9],75.4 u/L
same,BLOOD UREA NITROGEN,[9],8.8 mg/dL
same,CHLORIDE,[9],109 MEQ/L
same,CHOLESTEROL,[9],63.8 mg/dL
same,CREATINE PHOSPHOKINASE,[9],287.2 u/L
same,CREATININE,[9],0.42 mg/dL
same,GLUCOSE,[9],131.8 mg/dL
same,PHOSPHORUS,[9],14.88 mg/dL
same,POTASSIUM,[9],6.36 MEQ/L
same,SODIUM,[9],151.6 MEQ/L
same,TOTAL BILIRUBIN,[9],0.18 mg/dL
same,TOTAL PROTEIN,[9],6.24 G/DL
same,ALANINE AMINOTRANSFERASE,[10],67.33 u/L
same,ALBUMIN,[10],4.17 G/DL
